Results taken from patent US12110286B2, “Benzimidazolone derived inhibitors of BCL6” (Cancer Research Technology Limited, priority 2017, dated 2024).
Read-outs that look alike come from different tables or passages of the source.

Experiments:
[1] = molecular target: BCL6-NCOR2(SMRT) corepressor protein-protein interaction (Homo sapiens (Human), UniProt P41182); assay: NanoBRET cell assay; format: cell-based; conditions: transfected HEK293T cells, 6 hr; for IC50: read-out: NanoBRET cell pIC50 (converted)
Experimental: A cellular nano-Bioluminescence Resonance Energy Transfer (nanoBRET) assay (Promega NanoBRET Nano-Glo Detection System, catalogue number N1662) was used to detect inhibition of the BCL6-NCOR2(SMRT) corepressor protein-protein interaction. DNA encoding full length BCL6 and NCOR2 were inserted into pFC32K.NanoLuc and pFC14K.HaloTag vectors (Promega) to produce C-terminal tagged fusion proteins BCL6-nanoLuc and NCOR2-HaloTag, respectively. HEK293T cells were plated (5×10^5) in T75 tissue culture flask and bulk transfected 48 hours later with Fugene 6 (Promega cat. #E2691) reagent and 18 μg total DNA plasmids encoding BCL6-nanoLuc as donor and NCOR2-HaloTag as acceptor, at a donor:acceptor DNA ratio of 1:25. At 24 hr post-transfection, HEK293T cells were collected and stored in liquid nitrogen in 90% FBS (PAN Biotech UK) and 10% DMSO. […] Frozen transfected HEK293T cells were thawed, centrifuged and freezing medium was replaced by phenol red-free OptiMEM+4% FBS (Life Technology). […] Cells were incubated for 6 hr at 37° C./5% C02 then NanoBRET furimazine substrate (Promega) was added to give a final concentration of 10 μM. After a short centrifugation the plates were read on an Envision (Perkin Elmer) plate reader equipped with a LUM/D600 Dual mirror, Lum 450/40 nm bandpass and D605 nm longpass filters, with a 0.2 sec reading to determine the BRET ratio. The % inhibition at each test concentration was calculated by normalising the BRET ratio to the appropriate high and low controls.

[2] = molecular target: Trx-6×His-BCL6 (human BCL6 BTB domain covering amino-acid sequence 5-129) (Homo sapiens (Human), UniProt P41182); assay: HTRF in vitro assay (BCL6 / BCOR-AF633 peptide); format: binding; conditions: for IC50: read-out: HTRF pIC50 (converted)
Experimental: The % inhibition at each concentration was calculated by normalising FRET ratio to the appropriate high (DMSO with all reagents) and low (DMSO without BCL6) controls.

[3] = initially generated data, 10 nM Trx-6×His-BCL6, 300 nM BCOR-AF633 peptide, 1 nM anti-6×His-Terbium cryptate
[4] = further generated data, 1 nM Trx-6×His-BCL6, 300 nM BCOR-AF633 peptide, 0.5 nM anti-6×His-Terbium cryptate

Row | SMILES | NanoBRET cell pIC50 ([1]; further generated data) | IC50 ([1]; initially generated data) [nM] | HTRF pIC50 [2, 3] | HTRF pIC50 [2, 4] | IC50 ([1]; further generated data) [nM] | IC50 [2, 4] [nM]
1 | Cc1cc(Nc2ccc3c(c2)n(CCC(C)(C)O)c(=O)n3C)c(C#N)c(Cl)n1 [Example 1b, 2-chloro-4-[[3-(3-hydroxy-3-methyl-butyl)-1-methyl-2-oxo-benzimidazol-5-yl]amino]-6-methyl-pyridine-3-carbonitrile] | 5.28 | 5250 | 6.09 |  |  | 
2 | CNC(=O)c1cc(Nc2ccc3c(c2)n(CCC(C)(C)O)c(=O)n3C)c(C#N)c(Cl)n1 [Example 1a, 6-Chloro-5-cyano-4-[[3-(3-hydroxy-3-methyl-butyl)-1-methyl-2-oxo-benzimidazol-5-yl]amino]-N-methyl-pyridine-2-carboxamide] | 5.45 | 3550 | 6.48 | 6.22 |  | 
3 | Cc1cc(C)n(-c2cc(Nc3ccc4c(c3)n(CCC(C)(C)O)c(=O)n4C)c(Cl)cn2)n1 [Example 30a, 5-((5-chloro-2-(3,5-dimethyl-1H-pyrazol-1-yl)pyridin-4-yl)amino)-3-(3-hydroxy-3-methylbutyl)-1-methyl-1,3-dihydro-2H-benzo[d]imidazol-2-one] |  |  |  | 6.09 | 3090 | 
4 | Cc1nn(-c2ncc(Cl)c(Nc3ccc4c(c3)n(CCC(C)(C)O)c(=O)n4C)n2)c(C)c1Cl [Example 15n] |  |  |  | 6.35 | 1820 | 
5 | Cn1c(=O)n(CCC(C)(C)O)c2cc(Nc3nc(-n4ccc(C(F)(F)F)n4)ncc3Cl)ccc21 [Example 15d] |  |  |  | 6.41 | 1290 | 
6 | Cn1c(=O)n(CCC(C)(C)O)c2cc(Nc3nc(N4C5CC6CC(C5)CC4C6)ncc3Cl)ccc21 [Example 35t, 5-((2-((1r,3r,5r,7r)-2-azaadamantan-2-yl)-5-chloropyrimidin-4-yl)amino)-3-(3-hydroxy-3-methylbutyl)-1-methyl-1,3-dihydro-2H-benzo[d]imidazol-2-one] |  |  |  | 6.46 | 2340 | 
7 | CCC(C)(O)CCn1c(=O)n(C)c2ccc(Nc3nc(N4CCC(C(=O)N(C)C)CC4)ncc3Cl)cc21 (stereo not shown) [Example 15l] |  |  |  | 6.63 | 1320 | 
8 | CNC(=O)c1cc(Nc2ccc3c(c2)n(CC[C@@H](C)O)c(=O)n3C)c(C#N)c(Cl)n1 [Example 4, 6-Chloro-5-cyano-4-[[3-[(3R)-3-hydroxybutyl]-1-methyl-2-oxo-benzimidazol-5-yl]amino]-N-methyl-pyridine-2-carboxamide] | 5.20 | 6310 | 5.99 | 5.79 |  | 
9 | Cc1cc(C)n(-c2ncc(Cl)c(Nc3ccc4c(c3)n(CCC(C)(C)O)c(=O)n4C)n2)n1 [Example 15a, 5-[[5-Chloro-2-(3,5-dimethylpyrazol-1-yl)pyrimidin-4-yl]amino]-3-(3-hydroxy-3-methyl-butyl)-1-methyl-benzimidazol-2-one] |  | 2040 | 6.56 | 6.61 | 1780 | 
10 | C[C@@H]1CN(c2ncc(Cl)c(Nc3ccc4c(c3)n(CCC(C)(C)O)c(=O)n4C)n2)C[C@H](C)N1C [Example 35l, 5-((5-chloro-2-((3S,5R)-3,4,5-trimethylpiperazin-1-yl)pyrimidin-4-yl)amino)-3-(3-hydroxy-3-methylbutyl)-1-methyl-1,3-dihydro-2H-benzo[d]imidazol-2-one] |  |  |  | 6.76 | 1510 | 
11 | COCC(C)(O)CCn1c(=O)n(C)c2ccc(Nc3nc(N4CCC(C(=O)N(C)C)CC4)ncc3Cl)cc21 (stereo not shown) [Example 15i] |  |  |  | 6.75 | 2190 | 
12 | Cn1c(=O)n(CCC(C)(C)O)c2cc(Nc3nc(-c4n[nH]c5ccccc45)ncc3Cl)ccc21 [Example 17a, 5-((5-chloro-2-(1H-indazol-3-yl)pyrimidin-4-yl)amino)-3-(3-hydroxy-3-methylbutyl)-1-methyl-1,3-dihydro-2H-benzo[d]imidazol-2-one] |  |  |  |  | 1150 | 537
13 | CCOC(=O)c1c(C)nn(-c2ncc(Cl)c(Nc3ccc4c(c3)n(CCC(C)(C)O)c(=O)n4C)n2)c1C [Example 15c] |  |  |  | 6.22 | 2040 | 
14 | Cn1c(=O)n(CCC(C)(C)O)c2cc(Nc3nc(-n4ncc5ccccc54)ncc3Cl)ccc21 [Example 17b, 5-((5-chloro-2-(1H-indazol-1-yl)pyrimidin-4-yl)amino)-3-(3-hydroxy-3-methylbutyl)-1-methyl-1,3-dihydro-2H-benzo[d]imidazol-2-one] |  |  |  | 6.21 | 1910 | 
15 | CN(C)C(=O)C1CCN(c2ncc(Cl)c(Nc3ccc4c(c3)n(CCC(C)(C)O)c(=O)n4C)n2)CC1 [Example 20c] |  |  |  | 6.60 | 2140 | 

Further lines, results first:

Row | NanoBRET cell pIC50 ([1]; further generated data) | IC50 ([1]; initially generated data) [nM] | HTRF pIC50 [2, 3] | HTRF pIC50 [2, 4] | IC50 ([1]; further generated data) [nM] | IC50 [2, 4] [nM] | SMILES
16 |  |  |  |  | 1350 | 100 | C[C@@H]1CN(c2ncc(Cl)c(Nc3ccc4c(c3)n(CCC(C)(C)O)c(=O)n4C)n2)C[C@H](C2CC2)O1 [Example 21a, 5-((5-chloro-2-((2S,6R)-2-cyclopropyl-6-methylmorpholino)pyrimidin-4-yl)amino)-3-(3-hydroxy-3-methylbutyl)-1-methyl-1,3-dihydro-2H-benzo[d]imidazol-2-one]
17 |  |  |  | 6.70 | 2340 |  | COCC1CCCN(c2ncc(Cl)c(Nc3ccc4c(c3)n(CCC(C)(C)O)c(=O)n4C)n2)C1 (stereo not shown) [Example 35v, 5-((5-chloro-2-(3-(methoxymethyl)piperidin-1-yl)pyrimidin-4-yl)amino)-3-(3-hydroxy-3-methylbutyl)-1-methyl-1,3-dihydro-2H-benzo[d]imidazol-2-one]
18 |  |  |  | 6.63 | 1700 |  | CC(C)(O)CCn1c(=O)n(CCC(C)(C)O)c2ncc(Nc3nc(N4CC(C)(C)OC(C)(C)C4)ncc3Cl)cc21 [Example 35q, 6-((5-chloro-2-(2,2,6,6-tetramethylmorpholino)pyrimidin-4-yl)amino)-1,3-bis(3-hydroxy-3-methylbutyl)-1,3-dihydro-2H-imidazo[4,5-b]pyridin-2-one]
19 |  |  |  | 7.01 | 1380 |  | C[C@@H]1CN(c2ncc(Cl)c(Nc3ccc4c(c3)n(CCC(C)(C)O)c(=O)n4C)n2)C[C@@H](C2CC2)O1 [Example 21b, 5-((5-chloro-2-((2R,6R)-2-cyclopropyl-6-methylmorpholino)pyrimidin-4-yl)amino)-3-(3-hydroxy-3-methylbutyl)-1-methyl-1,3-dihydro-2H-benzo[d]imidazol-2-one]
20 |  |  |  | 6.12 | 2240 |  | Cn1c(=O)n(CCC(C)(C)O)c2cc(Nc3nc(N4CCC(C(F)(F)F)CC4)ncc3Cl)ccc21 [Example 35g, 5-((5-chloro-2-(4-(trifluoromethyl)piperidin-1-yl)pyrimidin-4-yl)amino)-3-(3-hydroxy-3-methylbutyl)-1-methyl-1,3-dihydro-2H-benzo[d]imidazol-2-one]
21 |  |  |  | 7.01 | 3160 |  | C[C@@H]1C[C@H](O)CN(c2ncc(Cl)c(Nc3ccc4c(c3)n(CCC(C)(C)O)c(=O)n4C)n2)C1 [Example 35x, 5-((5-chloro-2-((3S,5R)-3-hydroxy-5-methylpiperidin-1-yl)pyrimidin-4-yl)amino)-3-(3-hydroxy-3-methylbutyl)-1-methyl-1,3-dihydro-2H-benzo[d]imidazol-2-one]
